{"source": "patent US11020358B2", "about": "“Method for the anti-senescence of and/or rejuvenating stem cells” (GWO XI STEM CELL APPLIED TECHNOLOGY CO., LTD., priority 2014, dated 2021)", "key": {"[1]": {"tested_on": "SIRT1 gene", "test": "Quantitative RT-PCR of SIRT1 gene in WJSCs", "type": "cell-based", "procedure": "Three portions of equal volume of the above culture medium containing the sub-cultured WJSCs were provided. The first and second portions were handled by adding thereinto H2O2 at a final concentration of 100 μM, reacting for 2 hours to induce senescence of the WJSCs, replacing the culture medium with a fresh culture medium, adding thereinto TC at final concentrations of 0 and 6 μM, respectively, and reacting for 6 hours to obtain “H2O2 group (i.e., treated with H2O2 for 2 hours, but not treated with TC)” and “H2O2+TC6 group (i.e., treated with H2O2 for 2 hours and then treated with 6 μM of TC for 6 hours) WJSCs. The third portion without any treatment was referred to as “untreated group” WJSCs. […]\nEach of the cDNA of ADSCs of different groups from Experiment (3-1) was handled as follows. […] The mixture was then placed in a real-time quantitative PCR machine (ABI prism 7700 sequence detection system) to perform a reaction for quantifying the gene expression levels. […]\nThe steps as shown in Experiment (3-2) were repeated, but the cDNA was substituted with the cDNA of the BMMSCs or WJSCs from Experiment (3-1) to conduct quantitative RT-PCR."}, "[2]": {"tested_on": "ADSCs", "test": "Flow cytometry of surface antigens of ADSCs", "type": "cell-based, human", "conditions": "compared to untreated group", "procedure": "Four portions of equal volume of the above culture medium containing the sub-cultured ADSCs were separately handled by adding thereinto H2O2 (purchased from Sigma-Aldrich) at a final concentration of 100 μM and reacting for 2 hours to induce senescence of the ADSCs, replacing the culture medium with a fresh culture medium, adding thereinto TC (trans-cinnamaldehyde, purchased from Sigma-Aldrich) at a final concentration of 0, 2, 4 or 6 μM and reacting for 6 hours, so as to obtain “H2O2 group (i.e., treated with H2O2 for 2 hours, but not treated with TC),” “H2O2+TC2 group (i.e., treated with H2O2 for 2 hours and then treated with 2 μM of TC for 6 hours),” “H2O2+TC4 group (i.e., treated with H2O2 for 2 hours and then treated with 4 μM of TC for 6 hours),” and “H2O2+TC6 group (i.e., treated with H2O2 for 2 hours and then treated with 6 μM of TC for 6 hours)” ADSCs.\nFour portions of equal volume of the above culture medium containing the sub-cultured ADSCs were handled by adding thereinto TC at final concentrations of 0, 2, 4 and 6 μM respectively, and reacting for 6 hours to obtain “untreated group (i.e., without any treatment),” “TC2 group (i.e., treated only with 2 μM of TC),” “TC4 group (i.e., treated only with 4 μM of TC)” and “TC6 group (i.e., treated only with 6 μM of TC)” ADSCs. […]"}, "[3]": {"tested_on": "ADSCs", "test": "Analysis of proliferation rate (Ki67 staining)", "type": "cell-based, human", "procedure": "Four portions of equal volume of the above culture medium containing the sub-cultured ADSCs were separately handled by adding thereinto H2O2 (purchased from Sigma-Aldrich) at a final concentration of 100 μM and reacting for 2 hours to induce senescence of the ADSCs, replacing the culture medium with a fresh culture medium, adding thereinto TC (trans-cinnamaldehyde, purchased from Sigma-Aldrich) at a final concentration of 0, 2, 4 or 6 μM and reacting for 6 hours, so as to obtain “H2O2 group (i.e., treated with H2O2 for 2 hours, but not treated with TC),” “H2O2+TC2 group (i.e., treated with H2O2 for 2 hours and then treated with 2 μM of TC for 6 hours),” “H2O2+TC4 group (i.e., treated with H2O2 for 2 hours and then treated with 4 μM of TC for 6 hours),” and “H2O2+TC6 group (i.e., treated with H2O2 for 2 hours and then treated with 6 μM of TC for 6 hours)” ADSCs. Samples of the “untreated group,” “H2O2 group,” and “H2O2+TC6 group” ADSCs obtained from Example 1 (1) were washed with phosphate buffered saline (PBS) twice, fixed with 3.7% formaldehyde, and blocked with 10% FBS (diluted in PBS). Then, the cells of each sample were washed with PBS once, and reacted with a Ki67 antibody (purchased from Novus biological) at 4° C. overnight. […]"}}}
{"smiles": "O=C/C=C/c1ccccc1", "note": "[TC, trans-cinnamaldehyde]", "values": [{"measurement": "expression level of SIRT1 gene in WJSCs", "setting": "[1]; H2O2+TC6 group compared to H2O2 group", "result": "significantly increased"}, {"measurement": "expression phenotypes of the surface antigens", "setting": "[2]; 100 μM H2O2 2 h then 6 μM TC 6 h (H2O2+TC6 group)", "result": "not significantly changed"}, {"measurement": "number of the Ki67-positive cells", "setting": "[3]; H2O2+TC6 group ADSCs (6 μM TC 6 h after H2O2)", "result": "increased to be similar to that in “untreated group”"}]}
{"smiles": "OO", "note": "[H2O2, reference compound]", "values": [{"measurement": "expression level of SIRT1 gene in WJSCs", "setting": "[1]; H2O2 group compared to untreated group", "result": "significantly reduced"}, {"measurement": "expression phenotypes of the surface antigens", "setting": "[2]; 100 μM H2O2 2 h (H2O2 group)", "result": "not significantly changed"}, {"measurement": "number of the Ki67-positive cells", "setting": "[3]; H2O2 group ADSCs (100 μM 2 h), compared to untreated group", "result": "significantly reduced"}]}
